In US8940865B2, “Myocardial peptide, preparation method and uses thereof” (Dalian Zhen-Ao Pharmaceutical Co, Ltd., priority 2008, dated 2015):
Values joined by “and” are separate entries in the source; they are usually repeats but may differ in a detail not shown here. Equal values may be shown once.

Assays:
[1] = tested on: primary culture myocardium cell damaged by hypoxia/reoxygenation; experiment: Anti-hypoxia/reoxygenation injury effect on primary culture myocardium cell (MTT); assay type: cell-based, Neonatal SD rat
Description: Take ventricle from Neonatal SD rat, wash with D-Hank's and cut to small pieces, digest with collagenase II to obtain the myocardium cell and fibroblast, which are cultivated with high glucose DMEM (dmem-h-15) culture medium containing 15% fetal bovine serum. Remove the fibroblast through differential adhesion and chemistry method, and inoculate myocardium cell on the 96-well plates.
2.1.3 Anti-Hypoxia/Reoxygenation Injury Effect of CMPC to Primary Culture Myocardium Cell.
Cell cultivation method is the same as that in 2.1.1
Preparation of model: Preparing the model by using the myocardium cell cultured for 48˜72 h, dividing the cell on the culture plate to following groups: Control Group, Model Group, Verapamil Group (2, 0.4, 0.08 mg/l final concentration) and CMPM Group (final concentration of 50, 10, 2, 0.4, 0.08, 0.016, 0.0032 mg/l), 3 wells for every group. Except the Control Group, the other groups are prepared by following method: placing the monolayer myocardium cell on center of culture plate on low glucose medium (containing Verapamil or CMPM with corresponding concentration), then placing the culture plate into the vacuum drying machine, filling nitrogen, and hermetically culturing, causing myocardial injury after oxygen lack for 15 hours, then being cultured for 1 hour by high glucose DMEM medium (95% atmosphere and 5% CO2) to cause reoxygention injury. Measuring the absorbance value at 540 nm by using MTT method, and the same as above, calculating the protective rate to figure out EC50.

[2] = tested on: vitro cultured myocardium poisoned by adriamycin; experiment: Activity detection experiment of cultivation of myocardium cell (MTT); assay type: cell-based; details: mitochondria dehydrogenase activity of adriamycin-damaged myocardium, listed as peptide
Description: “Activity detection experiment of cultivation of myocardium cell” provided by DaLian Zhen-Ao Pharmaceutical CO., LTD is adopted in the activity detection. The experiment is based on test of vitro cultured myocardium poisoned by adriamycin, wherein, […] (MTT) is used as reaction indicator to observe the enhancement of the activity of mitochondria dehydrogenase of the damaged myocardium conducted by cardio myopeptidin, to determine the protective effect of myocardium.

[3] = tested on: primary culture myocardium cell damaged by adriamycin; experiment: Effect of CMPC against adriamycin injury of primary culture myocardium cell (MTT); assay type: cell-based, Neonatal SD rat
Experimental: Remove the fibroblast through differential adhesion and chemistry method, and inoculate myocardium cell on the 96-well plates.
2.1.2 The Against Function of Cmpc to Injury of Adriamycin to Primary Culture Myocardium Cell.
Cell culture method is the same as 2.1.1
Preparation of model: Blank Control Group: cultivating myocardium cell with DMEM-H-15;
Model Group: adding 1 mg/L adriamycin, washing the plate with DMEM-H-15 two times after being cultivated for 1 h, adding DMEM-H-15 for cultivation;
Protective rate=(Ax−Amodel)/(Acontrol−Amodel)×100%;
(Ax, Amode, Acontrol respectively represent Absorbance value of Drug administration groups, Model Group and Blank control group.

Sequence: KGAWSNVLRGMGGAF [CMPC, Lys-Gly-Ala-Trp-Ser-Asn-Val-Leu-Arg-Gly-Met-Gly-Gly-Ala-Phe]
- % (protective rate) ([1]; Plate 1, Dosage 0.0032 mg/L): 4.11%
- A540 ([1]; Plate 1, Dosage 0.0032 mg/L): 0.496 ± 0.031
- % (protective rate) ([1]; Plate 1, Dosage 0.016 mg/L): 14.69%
- A540 ([1]; Plate 1, Dosage 0.016 mg/L): 0.526 ± 0.032
- % (protective rate) ([1]; Plate 1, Dosage 0.08 mg/L): 26.09%
- A540 ([1]; Plate 1, Dosage 0.08 mg/L): 0.558 ± 0.025
- % (protective rate) ([1]; Plate 1, Dosage 0.4 mg/L): 38.95%
- A540 ([1]; Plate 1, Dosage 0.4 mg/L): 0.594 ± 0.043
- % (protective rate) ([1]; Plate 1, Dosage 2 mg/L): 28.91%
- A540 ([1]; Plate 1, Dosage 2 mg/L): 0.566 ± 0.057
- % (protective rate) ([1]; Plate 1, Dosage 10 mg/L): 17.74%
- A540 ([1]; Plate 1, Dosage 10 mg/L): 0.534 ± 0.033
- % (protective rate) ([1]; Plate 1, Dosage 50 mg/L): 9.05%
- A540 ([1]; Plate 1, Dosage 50 mg/L): 0.510 ± 0.030
- % (protective rate) ([1]; Plate 2, Dosage 0.0032 mg/L): 20.37%
- A540 ([1]; Plate 2, Dosage 0.0032 mg/L): 0.543 ± 0.052
- % (protective rate) ([1]; Plate 2, Dosage 0.016 mg/L): 22.85%
- A540 ([1]; Plate 2, Dosage 0.016 mg/L): 0.550 ± 0.024
- % (protective rate) ([1]; Plate 2, Dosage 0.08 mg/L): 48.52%
- A540 ([1]; Plate 2, Dosage 0.08 mg/L): 0.622 ± 0.047
- % (protective rate) ([1]; Plate 2, Dosage 0.4 mg/L): 40.20%
- A540 ([1]; Plate 2, Dosage 0.4 mg/L): 0.599 ± 0.032
- % (protective rate) ([1]; Plate 2, Dosage 2 mg/L): 30.99%
- A540 ([1]; Plate 2, Dosage 2 mg/L): 0.573 ± 0.052
- % (protective rate) ([1]; Plate 2, Dosage 10 mg/L): 19.36%
- A540 ([1]; Plate 2, Dosage 10 mg/L): 0.540 ± 0.026
- % (protective rate) ([1]; Plate 2, Dosage 50 mg/L): 18.12%
- A540 ([1]; Plate 2, Dosage 50 mg/L): 0.536 ± 0.036
- % (protective rate) ([1]; Plate 3, Dosage 0.0032 mg/L): 15.86%
- A540 ([1]; Plate 3, Dosage 0.0032 mg/L): 0.763 ± 0.018
- % (protective rate) ([1]; Plate 3, Dosage 0.016 mg/L): 24.20%
- A540 ([1]; Plate 3, Dosage 0.016 mg/L): 0.777 ± 0.014
- % (protective rate) ([1]; Plate 3, Dosage 0.08 mg/L): 38.05%
- A540 ([1]; Plate 3, Dosage 0.08 mg/L): 0.800 ± 0.020
- % (protective rate) ([1]; Plate 3, Dosage 0.4 mg/L): 47.29%
- A540 ([1]; Plate 3, Dosage 0.4 mg/L): 0.815 ± 0.014
- % (protective rate) ([1]; Plate 3, Dosage 2 mg/L): 64.26%
- A540 ([1]; Plate 3, Dosage 2 mg/L): 0.843 ± 0.032
- % (protective rate) ([1]; Plate 3, Dosage 10 mg/L): 34.43%
- A540 ([1]; Plate 3, Dosage 10 mg/L): 0.790 ± 0.023
- % (protective rate) ([1]; Plate 3, Dosage 50 mg/L): 14.96%
- A540 ([1]; Plate 3, Dosage 50 mg/L): 0.761 ± 0.019
- Activity value [2]: 2.3570 and 2.7328 and 2.564
- % (protective rate) ([3]; Plate 1, Dosage 0.0032 mg/L): 2.01%
- A540 ([3]; Plate 1, Dosage 0.0032 mg/L): 0.662 ± 0.036
- % (protective rate) ([3]; Plate 1, Dosage 0.016 mg/L): 33.08%
- A540 ([3]; Plate 1, Dosage 0.016 mg/L): 0.695 ± 0.039
- % (protective rate) ([3]; Plate 1, Dosage 0.08 mg/L): 40.49%
- A540 ([3]; Plate 1, Dosage 0.08 mg/L): 0.703 ± 0.012
- % (protective rate) ([3]; Plate 1, Dosage 0.4 mg/L): 58.27%
- A540 ([3]; Plate 1, Dosage 0.4 mg/L): 0.723 ± 0.018
- % (protective rate) ([3]; Plate 1, Dosage 2 mg/L): 27.98%
- A540 ([3]; Plate 1, Dosage 2 mg/L): 0.690 ± 0.025
- % (protective rate) ([3]; Plate 1, Dosage 10 mg/L): 4.79%
- A540 ([3]; Plate 1, Dosage 10 mg/L): 0.665 ± 0.032
- % (protective rate) ([3]; Plate 1, Dosage 50 mg/L): 2.47%
- A540 ([3]; Plate 1, Dosage 50 mg/L): 0.662 ± 0.031
- % (protective rate) ([3]; Plate 2, Dosage 0.0032 mg/L): 36.17%
- A540 ([3]; Plate 2, Dosage 0.0032 mg/L): 0.755 ± 0.033
- % (protective rate) ([3]; Plate 2, Dosage 0.016 mg/L): 35.55%
- A540 ([3]; Plate 2, Dosage 0.016 mg/L): 0.755 ± 0.024
- % (protective rate) ([3]; Plate 2, Dosage 0.08 mg/L): 49.30%
- A540 ([3]; Plate 2, Dosage 0.08 mg/L): 0.769 ± 0.055
- % (protective rate) ([3]; Plate 2, Dosage 0.4 mg/L): 56.11%
- A540 ([3]; Plate 2, Dosage 0.4 mg/L): 0.777 ± 0.057
- % (protective rate) ([3]; Plate 2, Dosage 2 mg/L): 33.85%
- A540 ([3]; Plate 2, Dosage 2 mg/L): 0.753 ± 0.065
- % (protective rate) ([3]; Plate 2, Dosage 10 mg/L): 33.54%
- A540 ([3]; Plate 2, Dosage 10 mg/L): 0.752 ± 0.039
- % (protective rate) ([3]; Plate 2, Dosage 50 mg/L): 33.08%
- A540 ([3]; Plate 2, Dosage 50 mg/L): 0.752 ± 0.036
- % (protective rate) ([3]; Plate 3, Dosage 0.016 mg/L): 55.92%
- A540 ([3]; Plate 3, Dosage 0.016 mg/L): 0.810 ± 0.020
- % (protective rate) ([3]; Plate 3, Dosage 0.08 mg/L): 60.35%
- A540 ([3]; Plate 3, Dosage 0.08 mg/L): 0.819 ± 0.016
- % (protective rate) ([3]; Plate 3, Dosage 0.4 mg/L): 42.34%
- A540 ([3]; Plate 3, Dosage 0.4 mg/L): 0.781 ± 0.050
- % (protective rate) ([3]; Plate 3, Dosage 2 mg/L): 39.42%
- A540 ([3]; Plate 3, Dosage 2 mg/L): 0.775 ± 0.008
- % (protective rate) ([3]; Plate 3, Dosage 10 mg/L): 36.41%
- A540 ([3]; Plate 3, Dosage 10 mg/L): 0.768 ± 0.057
- % (protective rate) ([3]; Plate 3, Dosage 50 mg/L): 30.49%
- A540 ([3]; Plate 3, Dosage 50 mg/L): 0.756 ± 0.014
